The target of the assay is T1, CFTR (Homo sapiens, UniProt P13569, DEL508-508).
T1 construct: Primary CF airway epithelial cells were obtained from the UNC Cystic Fibrosis Tissue Procurement and Cell Culture Core; host or cells: primary CF airway epithelial cells
In words: Equivalent current assay in Primary CF airway epithelial cells (NAUC). It counts as cell-based. The note with it: 24 h, normalized to VX809 (3 μM) positive control; for Nauc @ 3 μM: 3 μM test compound; for Nauc @ 10 μM: 10 μM test compound. The procedure, abridged:
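NAUC is the area under the curve from forskolin (10 μM) plus VX770 (1 μM) addition to CFTR-172 (20 μM) block, after benzamil (5 μM). It is corrected for vehicle and scaled to 3 μM VX809 as 1.0 and DMSO as 0.0. Cells were exposed for 24 h to compounds with VX809; medians of ≥4 replicates were fitted sigmoidally.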

T1 sequence (P13569 with tags, fused parts or gaps DEL508-508): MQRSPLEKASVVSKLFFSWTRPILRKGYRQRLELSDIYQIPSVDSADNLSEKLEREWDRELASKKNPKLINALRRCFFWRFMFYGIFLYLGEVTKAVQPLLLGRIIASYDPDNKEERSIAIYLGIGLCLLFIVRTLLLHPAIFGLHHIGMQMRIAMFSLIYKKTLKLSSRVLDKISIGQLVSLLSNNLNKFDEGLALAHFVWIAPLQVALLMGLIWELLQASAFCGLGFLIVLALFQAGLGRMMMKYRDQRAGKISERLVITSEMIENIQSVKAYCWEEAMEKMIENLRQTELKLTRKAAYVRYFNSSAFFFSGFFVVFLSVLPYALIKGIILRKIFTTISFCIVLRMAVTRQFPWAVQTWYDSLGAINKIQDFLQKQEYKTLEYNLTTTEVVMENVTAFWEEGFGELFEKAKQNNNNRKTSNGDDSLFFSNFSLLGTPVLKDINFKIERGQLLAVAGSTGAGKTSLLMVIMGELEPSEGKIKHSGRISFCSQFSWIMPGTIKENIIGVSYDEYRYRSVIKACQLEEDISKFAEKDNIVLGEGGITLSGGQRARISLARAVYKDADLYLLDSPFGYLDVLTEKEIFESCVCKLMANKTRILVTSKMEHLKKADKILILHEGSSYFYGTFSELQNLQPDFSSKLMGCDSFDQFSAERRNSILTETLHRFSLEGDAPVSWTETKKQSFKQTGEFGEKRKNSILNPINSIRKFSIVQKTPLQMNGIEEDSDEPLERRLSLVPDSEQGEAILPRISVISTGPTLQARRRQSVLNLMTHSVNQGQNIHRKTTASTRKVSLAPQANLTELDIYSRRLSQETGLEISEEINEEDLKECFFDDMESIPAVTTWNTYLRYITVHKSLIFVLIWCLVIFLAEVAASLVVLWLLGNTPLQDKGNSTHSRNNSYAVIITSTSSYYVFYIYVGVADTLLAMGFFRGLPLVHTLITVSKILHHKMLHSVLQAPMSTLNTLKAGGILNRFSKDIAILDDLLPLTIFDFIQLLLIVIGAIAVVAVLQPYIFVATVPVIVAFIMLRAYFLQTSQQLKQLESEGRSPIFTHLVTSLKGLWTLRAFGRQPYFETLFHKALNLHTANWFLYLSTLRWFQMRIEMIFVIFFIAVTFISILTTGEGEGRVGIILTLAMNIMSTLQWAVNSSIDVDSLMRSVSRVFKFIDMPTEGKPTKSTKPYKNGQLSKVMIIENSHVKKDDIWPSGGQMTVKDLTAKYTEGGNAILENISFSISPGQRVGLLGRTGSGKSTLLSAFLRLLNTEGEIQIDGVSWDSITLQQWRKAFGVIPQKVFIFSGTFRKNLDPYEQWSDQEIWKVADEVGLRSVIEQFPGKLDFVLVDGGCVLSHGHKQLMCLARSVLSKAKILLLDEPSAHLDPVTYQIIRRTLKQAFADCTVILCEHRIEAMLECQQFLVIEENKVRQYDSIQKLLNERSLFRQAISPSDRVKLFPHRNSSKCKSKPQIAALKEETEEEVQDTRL

On to `O=C1C2C3C[C@H](O)CN3C3(C(=O)Nc4c(Cl)cc(Cl)cc43)C2C(=O)N1c1cc(Cl)c(O)c(Cl)c1` (stereo partly drawn) [Example 82], for which the “Nauc @ 3 μM” value is “+ (NAUC “+” refers to an observed NAUC <140% of positive control)” and the “Nauc @ 10 μM” value was “++ (NAUC “++” refers to an observed NAUC 170-140% of positive control)”.

For `O=C1C2C3C[C@H](Cl)CN3C3(C(=O)Nc4c(Cl)cc(Cl)cc43)C2C(=O)N1c1cc(Cl)c(O)c(Cl)c1` (stereo partly drawn) [Example 83], the “Nauc @ 3 μM” value is reported as “++ (NAUC “++” refers to an observed NAUC 170-140% of positive control)” and the “Nauc @ 10 μM” value is given as “+++ (NAUC “+++” refers to an observed NAUC >170% of positive control)”.

As for `O=C1C2C3CCCN3C3(C(=O)Nc4ccc(Cl)cc43)C2C(=O)N1c1cc(Cl)cc(Cl)c1` (stereo not drawn) [Example 85], the “Nauc @ 3 μM” value is recorded as “++ (NAUC “++” refers to an observed NAUC 170-140% of positive control)” and the “Nauc @ 10 μM” value is “+++ (NAUC “+++” refers to an observed NAUC >170% of positive control)”.

In the case of `O=C1C2C(Cl)(C(=O)N1c1cc(Cl)cc(Cl)c1)C1CCCN1C21C(=O)Nc2c(Cl)cc(Cl)cc21` (stereo not drawn) [Example 89], the “Nauc @ 3 μM” value was “+ (NAUC “+” refers to an observed NAUC <140% of positive control)” and the “Nauc @ 10 μM” value is given as “++ (NAUC “++” refers to an observed NAUC 170-140% of positive control)”.

Turning to `CC(=O)Oc1c(Cl)cc(Cl)cc1N1C(=O)C2C3CCCN3C3(C(=O)Nc4c(Cl)cc(Cl)cc43)C2C1=O` (stereo not drawn) [Example 90], the “Nauc @ 3 μM” value was “+ (NAUC “+” refers to an observed NAUC <140% of positive control)” and the “Nauc @ 10 μM” value is “+++ (NAUC “+++” refers to an observed NAUC >170% of positive control)”.

`CC(=O)Oc1c(Cl)cc(Cl)cc1N1C(=O)C2C3C[C@H](O)CN3C3(C(=O)Nc4c(Cl)cc(Cl)cc43)C2C1=O` (stereo partly drawn) [Example 91]: the “Nauc @ 3 μM” value is “+ (NAUC “+” refers to an observed NAUC <140% of positive control)” and the “Nauc @ 10 μM” value is “+++ (NAUC “+++” refers to an observed NAUC >170% of positive control)”.

Consider `CC(=O)Oc1c(Cl)cc(Cl)cc1N1C(=O)C2C3C[C@H](F)CN3C3(C(=O)Nc4c(Cl)cc(Cl)cc43)C2C1=O` (stereo partly drawn) [Example 92], for which the “Nauc @ 3 μM” value was “+++ (NAUC “+++” refers to an observed NAUC >170% of positive control)” and the “Nauc @ 10 μM” value is reported as “+ (NAUC “+” refers to an observed NAUC <140% of positive control)”.

With `CC(=O)Oc1c(Cl)cc(Cl)cc1N1C(=O)C2C3C[C@H](Cl)CN3C3(C(=O)Nc4c(Cl)cc(Cl)cc43)C2C1=O` (stereo partly drawn) [Example 93], the “Nauc @ 3 μM” value was “++ (NAUC “++” refers to an observed NAUC 170-140% of positive control)” and the “Nauc @ 10 μM” value is reported as “+++ (NAUC “+++” refers to an observed NAUC >170% of positive control)”.

For the compound `O=C1C2C3C4OC4CN3C3(C(=O)Nc4c(Cl)cc(Cl)cc43)C2C(=O)N1c1cc(Cl)cc(Cl)c1` (stereo not drawn) [Example 94], the “Nauc @ 3 μM” value is listed as “++ (NAUC “++” refers to an observed NAUC 170-140% of positive control)” and the “Nauc @ 10 μM” value is “+++ (NAUC “+++” refers to an observed NAUC >170% of positive control)”.

For the compound `O=C1C2C3C[C@H](F)CN3C3(C(=O)Nc4c(Cl)cc(Cl)cc43)C2C(=O)N1c1cc(Cl)cc(Cl)c1O` (stereo partly drawn) [Example 95], the “Nauc @ 3 μM” value is “++ (NAUC “++” refers to an observed NAUC 170-140% of positive control)” and the “Nauc @ 10 μM” value was “+ (NAUC “+” refers to an observed NAUC <140% of positive control)”.

With `O=C1C2C3C[C@H](Cl)CN3C3(C(=O)Nc4c(Cl)cc(Cl)cc43)C2C(=O)N1c1cc(Cl)cc(Cl)c1O` (stereo partly drawn) [Example 96], the “Nauc @ 3 μM” value is “++ (NAUC “++” refers to an observed NAUC 170-140% of positive control)” and the “Nauc @ 10 μM” value was “+ (NAUC “+” refers to an observed NAUC <140% of positive control)”.

As to `COc1cccc(N2C(=O)C3C4CCCN4C4(C(=O)Nc5c(Cl)cc(Cl)cc54)C3C2=O)c1` (stereo not drawn) [Example 97], the “Nauc @ 3 μM” value is recorded as “+ (NAUC “+” refers to an observed NAUC <140% of positive control)” and the “Nauc @ 10 μM” value is “++ (NAUC “++” refers to an observed NAUC 170-140% of positive control)”.

Regarding `COc1ccc2c(c1)NC(=O)C21C2C(=O)N(c3cc(Cl)cc(Cl)c3)C(=O)C2C2CCCN21` (stereo not drawn) [Example 98], the “Nauc @ 3 μM” value is reported as “+++ (NAUC “+++” refers to an observed NAUC >170% of positive control)” and the “Nauc @ 10 μM” value is listed as “+++ (NAUC “+++” refers to an observed NAUC >170% of positive control)”.

Consider `O=C1C2C3CC(C(F)F)CN3C3(C(=O)Nc4c(Cl)cc(Cl)cc43)C2C(=O)N1c1cc(Cl)cc(Cl)c1` (stereo not drawn) [Example 99], for which the “Nauc @ 3 μM” value is “+++ (NAUC “+++” refers to an observed NAUC >170% of positive control)” and the “Nauc @ 10 μM” value is recorded as “+++ (NAUC “+++” refers to an observed NAUC >170% of positive control)”.

On to `O=C1C2C3CC(=C(F)F)CN3C3(C(=O)Nc4c(Cl)cc(Cl)cc43)C2C(=O)N1c1cc(Cl)cc(Cl)c1` (stereo not drawn) [Example 100], for which the “Nauc @ 3 μM” value is on record as “+++ (NAUC “+++” refers to an observed NAUC >170% of positive control)” and the “Nauc @ 10 μM” value is given as “+++ (NAUC “+++” refers to an observed NAUC >170% of positive control)”.

In the case of `Cc1csc(N2C(=O)C3C4CCCN4C4(C(=O)Nc5c(Cl)cc(Cl)cc54)C3C2=O)n1` (stereo not drawn) [Example 101], the “Nauc @ 3 μM” value is on record as “+ (NAUC “+” refers to an observed NAUC <140% of positive control)” and the “Nauc @ 10 μM” value is on record as “+++ (NAUC “+++” refers to an observed NAUC >170% of positive control)”.

As to `O=C1C2C3CCCN3C3(C(=O)Nc4ccc(C(F)(F)F)cc43)C2C(=O)N1c1cc(Cl)cc(Cl)n1` (stereo not drawn) [Example 102], the “Nauc @ 3 μM” value was “+ (NAUC “+” refers to an observed NAUC <140% of positive control)” and the “Nauc @ 10 μM” value was “++ (NAUC “++” refers to an observed NAUC 170-140% of positive control)”.

On to `CC1(C)CC2C3C(=O)N(c4cc(Cl)cc(Cl)c4)C(=O)C3C3(C(=O)Nc4c(Cl)cc(Cl)cc43)N2C1` (stereo not drawn) [Example 103], for which the “Nauc @ 3 μM” value was “++ (NAUC “++” refers to an observed NAUC 170-140% of positive control)” and the “Nauc @ 10 μM” value is on record as “+++ (NAUC “+++” refers to an observed NAUC >170% of positive control)”.

In the case of `O=C1C2C3C[C@H](CF)CN3C3(C(=O)Nc4c(Cl)cc(Cl)cc43)C2C(=O)N1c1cc(Cl)cc(Cl)c1` (stereo partly drawn) [Example 109], the “Nauc @ 3 μM” value is recorded as “++ (NAUC “++” refers to an observed NAUC 170-140% of positive control)” and the “Nauc @ 10 μM” value was “++ (NAUC “++” refers to an observed NAUC 170-140% of positive control)”.

For `COc1cccc(N2C(=O)C3C4C[C@H](Cl)CN4C4(C(=O)Nc5c(Cl)cc(Cl)cc54)C3C2=O)c1` (stereo partly drawn) [Example 113], the “Nauc @ 3 μM” value is reported as “+ (NAUC “+” refers to an observed NAUC <140% of positive control)” and the “Nauc @ 10 μM” value is “++ (NAUC “++” refers to an observed NAUC 170-140% of positive control)”.

As for `COc1cc(Cl)cc(N2C(=O)C3C4CC(=C(F)F)CN4C4(C(=O)Nc5c(Cl)cc(Cl)cc54)C3C2=O)c1` (stereo not drawn) [Example 117], the “Nauc @ 3 μM” value was “+++ (NAUC “+++” refers to an observed NAUC >170% of positive control)” and the “Nauc @ 10 μM” value is listed as “+++ (NAUC “+++” refers to an observed NAUC >170% of positive control)”.

Source of the values: patent US10072017B2, “Compounds and methods for the treatment of cystic fibrosis” (Flatley Discovery Lab, LLC, priority 2015, dated 2018).
